Measurements as given in patent US11261175B2 (priority 2017, dated 2022).

Assays:
Assay type in all cases: cell-based
[1] = system: HCV replicon NK5.1-Gluc (genotype 1b); experiment: Anti-HCV activity using HCV replicon NK5.1-Gluc (genotype 1b) in Huh 7.5.1 cells, luciferase readout; conditions: Hepatitis C virus, 72 h; Huh 7.5.1 cells with NK5.1-Gluc replicon, 3 days, Gaussia luciferase; read-out: HCV wt. GT-1b
[2] = system: HCV genotype 1b replicon with NS5A L31V mutation; experiment: Transiently transfected assay of genotype 1b resistance mutant RNA L31V; conditions: Hepatitis C virus, Huh-7.5.1, 72 h, read-out: HCV Mutation L31V
From the text: (§1) <Experimental Example 3> Transiently Transfected Assay of Genotype 1b Resistance Mutant RNAs
(§2) Replicon genomes substituted with Y93H, L31V and L31V+Y93H (double mutant), the resistance mutants to Daclatasvir with mutations at the NS5A protein domain 1.
(§3) These HCV resistance mutant genomes were linearized with scal restriction enzyme, and then the mutated HCV RNA was synthesized through in vitro transcription. Huh 7.5.1 cells were individually electroporated with HCV RNA with resistant mutations and plated in a 12 well plate. After 4 hours, Huh7.5.1 cells were seeded in DMEM containing the compounds of examples serially diluted for 3 days. Three days later, the cells were harvested and the intracellular luciferase activity was measured. The luciferase activity was normalized with those obtained from the negative control cells (mock-treated cells).

[3] = system: JFH5a-Rluc-ad34 virus (HCV GT-2a); experiment: Anti-HCV activity using HCVcc (JFH5a-Rluc-ad34 virus) in Huh 7.5.1 cells, Renilla luciferase readout; conditions: Hepatitis C virus, GT2A, Huh-7.5.1, 72 h, read-out: HCV wt. GT-2a
Experimental: <Experimental Example 1> Measurement of Anti-HCV Activity of Compounds of Examples Using HCVcc
Step 1: Cell Line and Cell Culture
Huh 7.5.1 cells were grown in Dulbecco's Modified Eagle's medium (DMEM; Gibco) supplemented with antibiotics (100 U/mL penicillin, 10 μg/mL streptomycin) and 10% heat-inactivated fetal bovine serum (ΔFBS; PEAK) in a CO2 incubator at 37° C. with […].
Huh7.5.1 cells were transfected with in vitro transcription RNA of JFH5a-Rluc-ad34, a derivative of JFH1 with adaptive mutations in E2 and p7 regions, by electroporation. JFH5a-Rluc-ad34 virus contains Renilla luciferase (Rluc), which is convenient for virus proliferation assay. The cell culture medium containing HCV was collected 3-5 days after the electroporation and then filtered through a […] pore size filter.
Step 3: Antiviral Activity Test Using Infectious HCV Particles
Huh 7.5.1 cells were inoculated with JFH5a-Rluc-ad34 virus and incubated for 4 hours. Four hours after the virus inoculation, the Huh7.5.1 cells infected with HCV were cultured in the medium containing the compound of examples serially diluted. Three days later, the cells were harvested and the intracellular luciferase activity was measured using Renilla luciferase assay system (Promega). Finally, the luciferase activity was normalized with those obtained from the negative control cells (mock-treated cells).

[4] = system: HCV genotype 1b replicon with NS5A Y93H mutation; experiment: Transiently transfected assay of genotype 1b resistance mutant RNA Y93H; conditions: Hepatitis C virus, Huh-7.5.1, 72 h, read-out: HCV Mutation Y93H
From the text: as §1, §2, §3

[5] = system: HCV replicon S52-Feo (genotype 3a); experiment: Anti-HCV activity using HCV replicon S52-Feo (genotype 3a) in Huh 7.5.1 cells, luciferase readout; conditions: Hepatitis C virus, 72 h; Huh 7.5.1 cells with S52-Feo replicon, 3 days, firefly luciferase; read-out: HCV wt. GT-3a
[6] = system: HCV genotype 1b replicon with NS5A L31V+Y93H (double mutant); experiment: Transiently transfected assay of genotype 1b resistance mutant RNA L31V+Y93H (double mutant); conditions: Hepatitis C virus, Huh-7.5.1, 72 h, read-out: HCV Mutation L31V + Y93H
From the text: as §1, §2, §3

| Structure (SMILES) | EC50 [1] | EC50 [2] | EC50 [3] | EC50 [4] | EC50 [5] | EC50 [6] |
| --- | --- | --- | --- | --- | --- | --- |
| CCCCCC1(CCCCC)c2cc(NC(=O)[C@@H]3CCCN3C(=O)[C@H](NC(=O)OC)c3ccccc3)ccc2-c2ccc(NC(=O)[C@@H]3CC(=O)CN3C(=O)[C@H](NC(=O)OC)c3ccccc3)cc21 [Example 19, methyl ((R)-2-((S)-2-((7-((S)-1-((R)-2-((methoxycarbonyl)amino)-2-phenylacetyl)pyrrolidine-2-carboxyamido)-9,9-dipentyl-9H-fluorene-2-yl)carbamoyl)-4-oxopyrrolidine-1-yl)-2-oxo-1-phenylethyl)carbamate] | 0.01 to 0.1 nM | 0.01 to 0.1 nM | 1 to 100 nM | 0.1 to 1 nM | 1 to 100 nM | 1 to 100 nM |
| CCCC1(CCC)c2cc(NC(=O)[C@@H]3CC4(CN3C(=O)[C@H](NC(=O)OC)c3ccccc3)OCCO4)ccc2-c2ccc(-c3cnc([C@@H]4CCCN4C(=O)[C@@H](NC(=O)OC)C(C)C)[nH]3)cc21 [Example 27, methyl ((S)-1-((S)-2-(5-(7-((S)-7-((R)-2-((methoxycarbonyl)amino)-2-phenylacetyl)-1,4-dioxa-7-azaspiro[4.4]nonane-8-carboxyamido)-9,9-dipropyl-9H-fluorene-2-yl)-1H-imidazole-2-yl)pyrrolidine-1-yl)-3-methyl-1-oxobutane-2-yl)carbamate] | 0.001 to 0.01 nM | 0.001 to 0.01 nM | 0.01 to 0.1 nM | 0.001 to 0.01 nM | 0.01 to 0.1 nM | 1 to 100 nM |
| CCCCC1(CCCC)c2cc(NC(=O)[C@@H]3C[C@@H](O)CN3C(=O)[C@H](NC(=O)OC)c3ccccc3)ccc2-c2ccc(-c3cnc([C@@H]4CCCN4C(=O)[C@@H](NC(=O)OC)C(C)C)[nH]3)cc21 [Example 31, methyl((S)-1-((S)-2-(5-(9,9-dibutyl-7-((2S,4R)-4-hydroxy-1-((R)-2-((methoxycarbonyl)amino)-2-phenylacetyl)pyrrolidine-2-carboxyamido)-9H-fluorene-2-yl)-1H-imidazole-2-yl)pyrrolidine-1-yl)-3-methyl-1-oxobutane-2-yl)carbamate] | 0.01 to 0.1 nM | 0.1 to 1 nM | 0.1 to 1 nM | 0.01 to 0.1 nM | 0.1 to 1 nM | 1 to 100 nM |
| CCCCC1(CCCC)c2cc(NC(=O)[C@@H]3C[C@H](COC)CN3C(=O)[C@H](NC(=O)OC)c3ccccc3)ccc2-c2ccc(-c3cnc([C@@H]4C[C@H](COC)CN4C(=O)[C@@H](NC(=O)OC)C(C)C)[nH]3)cc21 [Example 40, methyl ((S)-1-((2S,4S)-2-(5-(9,9-dibutyl-7-((2S,4S)-1-((R)-2-((methoxycarbonyl)amino)-2-phenylacetyl)-4-(methoxymethyl)pyrrolidine-2-carboxyamido)-9H-fluorene-2-yl)-1H-imidazole-2-yl)-4-(methoxymethyl)pyrrolidine-1-yl)-3-methyl-1-oxobutane-2-yl)carbamate] | 0.001 to 0.01 nM | 0.001 to 0.01 nM | 0.01 to 0.1 nM | 0.01 to 0.1 nM | 0.1 to 1 nM | 1 to 100 nM |
| CCCCC1(CCCC)c2cc(NC(=O)[C@@H]3C[C@@H](OC(=O)CN4CCOCC4)CN3C(=O)[C@H](NC(=O)OC)c3ccccc3)ccc2-c2ccc(NC(=O)[C@@H]3C[C@@H](OC(=O)CN4CCOCC4)CN3C(=O)[C@H](NC(=O)OC)c3ccccc3)cc21 [Example 33, (3R,3′R,5S,5S,52R)-5,5′-(9,9-dibutyl-9H-fluorene-2,7-diyl)bis(azanediyl)bis(oxomethylene)bis(1-((R)-2-(methoxycarbonylamino)-2-phenylacetyl)pyrrolidine-5,3-diyl) bis(2-morpholinoacetate)] | 0.01 to 0.1 nM | 0.01 to 0.1 nM | 0.1 to 1 nM | 0.01 to 0.1 nM | 0.1 to 1 nM | 0.1 to 1 nM |
| CCCCC1(CCCC)c2cc(NC(=O)[C@@H]3C[C@@H](OC)CN3C(=O)[C@H](NC(=O)OC)c3ccccc3)ccc2-c2ccc(NC(=O)[C@@H]3C[C@@H](OC)CN3C(=O)[C@H](NC(=O)OC)c3ccccc3)cc21 [Example 39, dimethyl (1R,1′R)-2,2′-((3R,3′R,5S,5′S)-5,5′-(9,9-dibutyl-9H-fluorene-2,7-diyl)bis(azanediyl)bis(oxomethylene)bis(3-methoxypyrrolidine-5,1-diyl))bis(2-oxo-1-phenylethane-2,1-diyl)dicarbamate] | 0.01 to 0.1 nM | 0.001 to 0.01 nM | 1 to 100 nM | 0.01 to 0.1 nM | 0.1 to 1 nM | 1 to 100 nM |
| CCCCC1(CCCC)c2cc(NC(=O)[C@@H]3C[C@H]4CCC[C@H]4N3C(=O)[C@H](NC(=O)OC)c3ccccc3)ccc2-c2ccc(NC(=O)[C@@H]3C[C@H]4CCC[C@H]4N3C(=O)[C@H](NC(=O)OC)c3ccccc3)cc21 [Example 22, dimethyl ((1R,1′R)-((2S,2′S,3aR,3a′R,6aR,6a′R)-(((9,9-dibutyl-9H-fluorene-2,7-diyl)bis(azanediyl))bis(carbonyl))bis(hexahydrocyclopenta[b]pyrrole-2,1(2H)-diyl))bis(2-oxo-1-phenylethane-2,1-diyl))dicarbamate] | 0.001 to 0.01 nM | 0.001 to 0.01 nM | 1 to 100 nM | 0.01 to 0.1 nM | 0.01 to 0.1 nM | > 100 nM |
| CCCC1(CCC)c2cc(NC(=O)[C@@H]3CCCN3C(=O)[C@H](NC(=O)OC)c3ccccc3)ccc2-c2ccc(NC(=O)[C@@H]3CCCN3C(=O)[C@H](NC(=O)OC)c3ccccc3)cc21 [Example 1, dimethyl ((1R,1′R)-((2S,2′S)-(((9,9-dipropyl-9H-fluorene-2,7-diyl)bis(azanediyl))bis(carbonyl))bis(pyrrolidine-2,1-diyl))bis(2-oxo-1-phenylethane-2,1-diyl))dicarbamate] | 0.01 to 0.1 nM | 0.1 to 1 nM | 1 to 100 nM | 1 to 100 nM | 0.1 to 1 nM | > 100 nM |
| CCCCCC1(CCCCC)c2cc(NC(=O)[C@@H]3CC(=O)CN3C(=O)[C@H](NC(=O)OC)c3ccccc3)ccc2-c2ccc(NC(=O)[C@@H]3CC4(CN3C(=O)[C@H](NC(=O)OC)c3ccccc3)OCCO4)cc21 [Example 18, methyl ((R)-2-((S)-8-((7-((S)-1-((R)-2-((methoxycarbonyl)amino)-2-phenylacetyl)-4-oxopyrrolidine-2-carboxyamido)-9,9-dipentyl-9H-fluorene-2-yl)carbamoyl)-1,4-dioxa-7-azaspiro[4.4]nonane-7-yl)-2-oxo-1-phenylethyl)carbamate] | 0.01 to 0.1 nM | 0.01 to 0.1 nM | 1 to 100 nM | 0.1 to 1 nM | 0.1 to 1 nM | 1 to 100 nM |
| CCCCC1(CCCC)c2cc(NC(=O)[C@@H]3CC(=O)CN3C(=O)[C@H](NC(=O)OC)c3ccccc3)ccc2-c2ccc(NC(=O)[C@@H]3CC(=O)CN3C(=O)[C@H](NC(=O)OC)c3ccccc3)cc21 [Example 6, dimethyl ((1R,1′R)-((5S,5′S)-(((9,9-dibutyl-9H-fluorene-2,7-diyl)bis(azanediyl))bis(carbonyl))bis(3-oxopyrrolidine-5,1-diyl))bis(2-oxo-1-phenylethane-2,1-diyl))dicarbamate] | 0.01 to 0.1 nM | 0.001 to 0.01 nM | 0.1 to 1 nM | 0.1 to 1 nM | 0.01 to 0.1 nM | 1 to 100 nM |
| CCCCC1(CCCC)c2cc(NC(=O)[C@@H]3C[C@@H](OCCOC)CN3C(=O)[C@H](NC(=O)OC)c3ccccc3)ccc2-c2ccc(NC(=O)[C@@H]3C[C@@H](OCCOC)CN3C(=O)[C@H](NC(=O)OC)c3ccccc3)cc21 [Example 34, dimethyl (1R,1′R)-2,2′-((3R,3′R,5S,5′S)-5,5′-(9,9-dibutyl-9H-fluorene-2,7-diyl)bis(azanediyl)bis(oxomethylene)bis(3-(2-methoxyethoxy)pyrrolidine-5,1-diyl))bis(2-oxo-1-phenylethane-2,1-diyl)dicarbamate] | 0.1 to 1 nM | 0.01 to 0.1 nM | 1 to 100 nM | 0.01 to 0.1 nM | 1 to 100 nM | 1 to 100 nM |
